# In patent publication US10119079B2, “Composition for removal of sulfur-containing compounds” (KURARAY CO., LTD., priority 2014, dated 2018):
# Columns and labels:
# [1] = tested on: 6-week-old male CRj:CD(SD) rat; assay: Oral toxicity, 14-day repeated oral administration; format: in vivo
# From the text: A test substance which had been emulsified and dispersed in a 2%-gum arabic aqueous solution (containing 0.5%-Tween 80) was compulsorily administered in a 6-week-old male CRj:CD(SD) rat once a day for 14 days by using an oral sonde. A body weight variation and a general state during the administration period were observed. The rat was fasted for one day from the final administration date (drinking was freely taken), and on the day after final administration, taking a blood sample (for various blood tests) and mass measurement of major organs were performed. In addition, with respect to the liver, kidney, spleen, and testis, a histopathological examination (optical microscopic observation of HE-stained thin sliced tissue piece) was also carried out. A dose was set to 1,000, 250, 60, 15, and 0 mg/kg/day (administration liquid volume=1 mL/100 g-body weight/day), respectively, and five animals were used for each dosage.
# (1) NL (GC purity: 99.7%)
# (2) Glutaraldehyde (water content: 101 ppm, GC purity: 99.8%)
# As a result of the test, with respect to NL, no fatal case was admitted even at the highest dose of 1,000 mg/kg/day.
# [2] = Removal of H2S from crude oil in autoclave (Examples 2-3, Comparative Examples 1-2); details: liquid added at 1% by mass, 80° C., 5 hours, 800 rpm; for H2S concentration of the gas phase part after the reaction: initial 2,580-2,800 ppm
# Procedure: In a 100-mL autoclave equipped with a thermometer and a stirrer, 30 mL of a crude oil collected in Japan was charged and stirred until an H2S concentration of a gas phase part became constant. Thereafter, the concentration was measured with RX-517 (manufactured by Riken Kiki Co., Ltd.) and found to be 2,800 ppm. Subsequently, a composition liquid prepared by mixing PEG-200 and NL/MOL in a mass ratio of 1/1 was added in a concentration of 1% by mass relative to the crude oil. At this time, the addition amount of NL/MOL was 0.6 mmol, and the presence amount of H2S within the apparatus was 0.05 mmol. Thereafter, the inside of the apparatus was subjected to temperature rise to 80° C. while stirring at 800 rpm, and the contents were allowed to react with each other for 5 hours. After the reaction, the reaction mixture was cooled to room temperature, an H2S concentration of the gas phase part was measured and found to be 2 ppm, and a removal efficiency was 99.9%.
# (§1) In a 100-mL autoclave equipped with a thermometer and a stirrer, 30 mL of a crude oil collected in Japan was charged and stirred until an H2S concentration of a gas phase part became constant. Thereafter, the concentration was measured with RX-517 (manufactured by Riken Kiki. Co., Ltd.) and found to be 2,580 ppm. Subsequently, a 50% by mass MGL aqueous solution was added in a concentration of 1% by mass relative to the crude oil. At this time, the addition amount of MGL was 0.9 mmol, and the presence amount of H2S within the apparatus was 0.05 mmol. Thereafter, the inside of the apparatus was subjected to temperature rise to 80° C. while stirring at 800 rpm, and the contents were allowed to react with each other for 5 hours. After the reaction, the reaction mixture was cooled to room temperature, an H2S concentration of the gas phase part was measured and found to be 70 ppm, and a removal efficiency was 97.3%.
# as §1, with “Kiki” for “Kiki.”, “2,714” for “2,580”, “glutaraldehyde” for “MGL”, “1.0” for “0.9”, “100” for “70”, “96.3%.” for “97.3%.”
# In a 100-mL autoclave equipped with a thermometer and a stirrer, 30 mL of a crude oil collected in Japan was charged and stirred until an H2S concentration of a gas phase part became constant. Thereafter, the concentration was measured with RX-517 (manufactured by Riken Kiki Co., Ltd.) and found to be 2,600 ppm. Subsequently, a 40% by mass glyoxal aqueous solution (manufactured by Wako Pure Chemical Industries, Ltd.) was added in a concentration of 1% by mass relative to the crude oil. At this time, the addition amount of glyoxal was 1.8 mmol, and the presence amount of H2S within the apparatus was 0.04 mmol. Thereafter, the inside of the apparatus was subjected to temperature rise to 80° C. while stirring at 800 rpm, and the contents were allowed to react with each other for 5 hours. After the reaction, the reaction mixture was cooled to room temperature, an H2S concentration of the gas phase part was measured and found to be 498 ppm, and a removal efficiency was 80.8%.
# [3] = tested on: sludge of the sewage treatment plant; assay: Bactericidal test on sludge (MTT method); format: cell-based; details: sludge bacterial culture, about 25° C., 24 and 48 hours, MTT visual
# Procedure: To a synthetic sewer water prepared by dissolving 5 g of each of glucose, peptone, and monopotassium dihydrogen phosphate in one liter of water and adjusting the pH at 7.0±1.0 with sodium hydroxide, a sludge of the sewage treatment plant located in the Mizushima district, Kurashiki-shi, Okayama Prefecture, Japan was added in an amount of 30 ppm as converted to dry mass, thereby preparing a bacterial culture. Meanwhile, a test substance was diluted with distilled water on a scale of […] in a final concentration of 1,000 to 0.004 ppm (common ratio=4) on a 24-well microplate, thereby preparing test solutions. Two wells were used for every concentration. As a comparison target, (distilled water+bacterial culture) was defined as “bacterial culture blank”, and distilled water alone was defined as “blank”.
# The above-prepared bacterial culture and test solution were mixed in a volume ratio of 1/1, and the mixture was allowed to stand within a thermostatic tank at ambient temperature (about 25° C.) for 24 hours and 48 hours, respectively. A level of sludge influence at each concentration of the test substance was visually observed by means of the MTT method. An MTT reagent is converted by mitochondria as a microorganism in the sludge to form formazan, thereby developing a blue color.
# (1) Mixture of NL and MOL (GC purity: 98.7%, NL/MOL=59/41) […]
# [4] = tested on: Pseudokirchneriella subcapitata; assay: Alga growth inhibition test (OECD Test Guidelines No. 201); format: cell-based; details: Selenastrum capricornutum; algae growth inhibition, 23° C., 72 hours; read-out: ErC50 (72 hr)
# Procedure: An alga growth inhibition test of a test substance was carried out with reference to OECD Test Guidelines No. 201. That is, each of the following test substances was diluted with a test medium to a prescribed dosage. A liquid suspension of algae which had been grown to an exponential growth phase by preculture was added in an initial concentration of 1×10^4 cells/mL. The liquid suspension was subjected to shaking culture at 23° C. using a light irradiation-type bio shaker (BR-180LF, manufactured by Taitec Corporation), the number of algae cells at an elapsed time of 24, 48, and 72 hours, respectively after the start of the test was counted with a flow cytometer (Cell Lab Quant SC, manufactured by Beckman Coulter, Inc.), and a growth ratio at each test dosage was calculated while defining a growth ratio of the normal control as 100%. In addition, ErC50 was calculated according to an equation of an approximate curve of a graph plotting a growth inhibition ratio.
# Algae: Pseudokirchneriella subcapitata
# Dosage of Test Substance:
# Each of the test substance (1) and the test substance (2): 100, 32, 10, 3.2, 1, 0.32 mg/L (common ratio: √10), and 0 mg/L (normal control)
# Standard substance: 3.2, 1, 0.32 mg/L, and 0 mg/L (normal control)
# [5] = rat, oral, once a day for 14 days
Structure (SMILES),classification as deleterious substance ([1]; rat oral toxicity test),"NOEL (maximum no-effect level) [1, 5] [mg/kg]","fatal cases ([1]; rat, oral, once a day for 14 days, highest dose of 1,000 mg/kg/day)",removal efficiency [2] [%],H2S concentration of the gas phase part after the reaction [2] [ppm],Sterilizing concentration [3] [ppm],EC50 [4] [µg/mL]
"O=CCCCCCCCC=O [NL, 1,9-nonanedial]",not corresponding to a “deleterious substance”,250,no fatal case,–,–,–,–
O=CC=O [glyoxal],–,–,–,80.8,498,–,–
"CC(CC=O)CC=O [MGL, 3-methylglutaraldehyde]",–,–,–,97.3,70,–,–
"O=CCCCC=O [Glutaraldehyde, glutaraldehyde]",–,5,–,96.3,100,63,9
